Measured values: patent publication US7531539B2, “Pyrrolotriazine kinase inhibitors” (Bristol-Myers Squibb Company, priority 2006, dated 2009)

Columns and labels:
Type in all cases: biochemical
[1] = target: Casein Kinase 2 A2 kinase (Homo sapiens, UniProt P19784); assay: CK2A2 kinase assay (33P, TCA precipitation)
Protocol: (§1) Incubation mixtures employed for the Casein Kinase 2 A2 kinase assay contain Casein Kinase 2 A2 kinase, a synthetic peptide substrate, ATP, ATP-γ^33P and a Hepes buffer containing Mg^++, NaCl, DTT, and Brij-35. Reactions were incubated for 60 minutes at 30° C. and stopped by the addition of trichloroacetic acid (TCA) to a final concentration 8%. TCA precipitates were collected onto GF/C unifilter plates using a Filtermate universal harvester and the filters are quantitated using a TopCount 96/384-well liquid scintillation counter. Dose response curves were generated to determine the concentration required to inhibit 50% of kinase activity (IC^50). Compounds were dissolved at 10 mM in dimethyl sulfoxide (DMSO) and evaluated at ten concentrations, each in duplicate. The final concentration of DMSO in the assay is 1.7%. IC50 values were derived by non-linear regression.

[2] = target: Casein Kinase 2 A1 kinase (Homo sapiens, UniProt P68400); assay: CK2A1 kinase assay (33P, TCA precipitation)
Protocol: as §1, with “2 A1” for “2 A2”, “contain Casecin” for “contain Casein”, “ATP, ATP-γ-^33 P” for “ATP, ATP-γ^33P”, “containing Mg^2+,” for “containing Mg^++,”, “activity (IC50).” for “activity (IC^50).”

[3] = target: T1, kinase domain of the human TrkA receptor (Homo sapiens, UniProt P04629); assay: TrkA tyrosine kinase assay (33P, polyGluTyr substrate); settings: 30 uM ATP, 0.1 mg/ml PGT
T1 construct: The kinase domain of the human TrkA receptor is expressed in Sf9 insect cells as a histidine (His)-fusion protein; His; made in house; host or cells: Sf9 insect cells (baculovirus)
From the text: The ability of compounds of the present invention to inhibit tyrosine kinase activity of TrkA may be measured using a recombinant enzyme in an assay that measures the ability of compounds to inhibit the phosphorylation of the exogenous substrate, polyGluTyr (PGT, 4:1). The kinase domain of the human TrkA receptor is expressed in Sf9 insect cells as a histidine (His)-fusion protein using a baculovirus expression system. The protein is purified from the lysates of these cells using an Ni—NTA affinity column. After the recombinant enzyme is purified, it is activated by incubation with cold ATP. The enzyme assay is performed in a 96-well plate. Test compounds are first dissolved in dimethylsulfoxide (DMSO) and then serially-diluted in a 96-well plate. The serially-diluted compounds are transferred to the 96-well assay plate so that the final concentration of DMSO in the enzyme assay is 1.64%. All assay components are diluted in phosphorylation buffer (20 mm MOPS, 10 mM MgCl2, 1 mM EDTA, 0.015% Brij-35, […], 0.0025% Beta-Mercaptoethanol). The recombinant enzyme is added to the assay plate containing test compound and the reaction is initiated with a substrate solution containing a final concentration of 0.1 mg/ml PGT, 30 uM ATP, and 0.008 mCi/ml ^33P-gammaATP (3000 Ci/mmol). After a 1 hour incubation at 30° C., the reaction is terminated with 10% TCA and incubated at 4° C. for 1 hour. The reaction is filtered onto a Unifilter® GF/C™ filter plate that has been presoaked with 0.1M NaPyrophosphate. Microscint-20 is then added to the dried filter plate and the captured ^33P-phosphorylated PGT is quantitated on a microscintillation plate counter (TopCount.NXT™). Inhibition of the kinase enzymatic activity by the test compound is detected by a reduction in scintillation, and the concentration of compound that is required to inhibit the signal by 50% is reported as the IC50 value for the test compound.
(§2) Compounds described herein were tested in the TrkA and TrkB assays described above.

[4] = target: T2, kinase domain of the human TrkB receptor (amino acids 526-838) (Homo sapiens, UniProt Q16620); assay: TrkB tyrosine kinase assay (33P, polyGluTyr substrate); settings: 30 uM ATP, 0.1 mg/ml PGT
T2 construct: human TrkB receptor (amino acids 526-838); His; purchased Invitrogen; host or cells: insect cells
Protocol: The ability of compounds of the present invention to inhibit tyrosine kinase activity of TrkB may be measured using a recombinant enzyme in an assay that measures the ability of compounds to inhibit the phosphorylation of the exogenous substrate, polyGluTyr (PGT, 4:1). The kinase domain of the human TrkB receptor (amino acids 526-838) is expressed in insect cells as a histidine (His)-fusion protein and is commercially available from Invitrogen™. The enzyme assay is performed in a 96-well plate. Test compounds are first dissolved in dimethylsulfoxide (DMSO) and then serially-diluted in a 96-well plate. The serially-diluted compounds are transferred to the 96-well assay plate so that the final concentration of DMSO in the enzyme assay is 1.64%. All assay components are diluted in phosphorylation buffer (20 mm MOPS, 10 mM MgCl2, 1 mM EDTA, 0.015% Brij-35, 0.1 mg/ml BSA, 0.0025% Beta-Mercaptoethanol). The recombinant enzyme is added to the assay plate containing test compound and the reaction is initiated with a substrate solution containing a final concentration of 0.1 mg/ml PGT, 30 uM ATP, and 0.008 mCi/ml ^33P-gammaATP (3000 Ci/mmol). After a 1 hour incubation at 30° C., the reaction is terminated with 10% TCA and incubated at 4° C. for 1 hour. The reaction is filtered onto a Unifilter® GF/C™ filter plate that has been pre-soaked with 0.1M NaPyrophosphate. Microscint-20 is then added to the dried filter plate and the captured ^33P-phosphorylated PGT is quantitated on a microscintillation plate counter (TopCount.NXT™). Inhibition of the kinase enzymatic activity by the test compound is detected by a reduction in scintillation, and the concentration of compound that is required to inhibit the signal by 50% is reported as the IC50 value for the test compound.
as §2

Sequence of Casein Kinase 2 A2 kinase (P19784 whole entry): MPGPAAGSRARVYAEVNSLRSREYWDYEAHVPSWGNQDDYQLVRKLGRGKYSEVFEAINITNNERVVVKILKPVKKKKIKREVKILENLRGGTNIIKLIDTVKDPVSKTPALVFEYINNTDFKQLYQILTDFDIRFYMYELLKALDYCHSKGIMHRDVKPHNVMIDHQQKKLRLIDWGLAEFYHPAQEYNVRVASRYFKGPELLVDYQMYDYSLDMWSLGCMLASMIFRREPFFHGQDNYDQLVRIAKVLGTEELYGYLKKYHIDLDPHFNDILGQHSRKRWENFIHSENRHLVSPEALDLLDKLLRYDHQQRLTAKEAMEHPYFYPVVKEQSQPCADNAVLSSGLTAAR
T2 sequence (Q16620 510-822): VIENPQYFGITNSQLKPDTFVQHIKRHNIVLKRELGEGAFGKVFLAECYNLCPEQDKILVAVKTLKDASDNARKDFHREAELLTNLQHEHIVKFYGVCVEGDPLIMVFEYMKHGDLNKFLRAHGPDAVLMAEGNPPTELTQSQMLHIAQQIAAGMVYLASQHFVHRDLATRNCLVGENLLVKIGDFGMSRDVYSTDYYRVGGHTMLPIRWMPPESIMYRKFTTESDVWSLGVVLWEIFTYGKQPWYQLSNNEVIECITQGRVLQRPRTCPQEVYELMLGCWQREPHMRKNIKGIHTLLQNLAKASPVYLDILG
Sequence of Casein Kinase 2 A1 kinase (P68400 whole entry): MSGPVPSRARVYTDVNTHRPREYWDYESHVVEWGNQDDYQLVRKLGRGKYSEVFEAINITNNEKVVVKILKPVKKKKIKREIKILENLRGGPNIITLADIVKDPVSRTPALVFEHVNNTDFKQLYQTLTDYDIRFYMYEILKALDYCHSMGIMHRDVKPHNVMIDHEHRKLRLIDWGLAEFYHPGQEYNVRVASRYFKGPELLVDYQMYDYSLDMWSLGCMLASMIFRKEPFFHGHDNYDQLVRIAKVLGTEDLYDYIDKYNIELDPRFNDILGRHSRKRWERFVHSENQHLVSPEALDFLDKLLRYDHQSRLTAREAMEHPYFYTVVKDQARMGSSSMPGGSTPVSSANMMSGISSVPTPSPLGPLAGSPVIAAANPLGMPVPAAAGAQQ
T1 sequence (P04629 510-781 limits assumed): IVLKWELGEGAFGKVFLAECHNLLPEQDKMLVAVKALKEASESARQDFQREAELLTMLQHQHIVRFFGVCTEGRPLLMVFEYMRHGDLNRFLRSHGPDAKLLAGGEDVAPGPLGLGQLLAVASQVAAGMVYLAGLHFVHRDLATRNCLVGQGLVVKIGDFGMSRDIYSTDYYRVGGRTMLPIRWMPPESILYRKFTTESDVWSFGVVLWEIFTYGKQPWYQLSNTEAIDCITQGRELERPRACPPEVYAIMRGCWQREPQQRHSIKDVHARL

Compound	IC50 [1] [nM]	IC50 [2] [nM]	IC50 [3] [nM]	IC50 [4] [nM]
2-(3-(2-methoxyphenyl)pyrrolidin-1-yl)-N-(3-methyl-1H-pyrazol-5-yl)pylTolo[1,2-f][1,2,4]triazin-4-amine [Example 176]	89	872		
NC1CCN(c2nc(Nc3cc(C4CC4)n[nH]3)c3cccn3n2)CC1 [Example 3, 2-(4-amino-1-piperidinyl)-N-(3-cyclopropyl-1H-pyrazol-5-yl)pyrrolo[2,1-f][1,2,4]triazin-4-amine]			0.6	2
NC1CCN(c2nc(Nc3ccn[nH]3)c3cccn3n2)CC1 [Example 4, 2-(4-amino-1-piperidinyl)-N-1H-pyrazol-5-ylpyrrolo[2,1-f][1,2,4]triazin-4-amine]			123	312
c1ccc(CNC2CCN(c3nc(Nc4cc(C5CC5)n[nH]4)c4cccn4n3)CC2)cc1 [Example 8, 2-(4-(benzylamino)-1-piperidinyl)-N-(3-cyclopropyl-1H-pyrazol-5-yl)pyrrolo[2,1-f][1,2,4]triazin-4-amine]			0.3	0.3
NC1CCN(c2nc(Nc3cc(OCC4CC4)n[nH]3)c3cccn3n2)CC1 [Example 14, 2-(4-amino-1-piperidinyl)-N-(3-(cyclopropylmethoxy)-1H-pyrazol-5-yl)pyrrolo[2,1-f][1,2,4]triazin-4-amine]			1	3
C[C@H]1C[C@@H]1c1cc(Nc2nc(N3CCC(N)CC3)nn3cccc23)[nH]n1 [Example 18, 2-(4-amino-1-piperidinyl)-N-(3-((1S,2S)-2-methylcyclopropyl)-1H-pyrazol-5-yl)pyrrolo[2,1-f][1,2,4]triazin-4-amine]			0.8	1
CCC(C)c1cc(Nc2nc(N3CCC(N)CC3)nn3cccc23)[nH]n1 (stereo not drawn) [Example 19, 2-(4-amino-1-piperidinyl)-N-(3-sec-butyl-1H-pyrazol-5-yl)pyrrolo[2,1-f][1,2,4]triazin-4-amine]			9	20
CC(C)(C)c1cc(Nc2nc(N3CCC(N)CC3)nn3cccc23)[nH]n1 [Example 21, 2-(4-amino-1-piperidinyl)-N-(3-tert-butyl-1H-pyrazol-5-yl)pyrrolo[2,1-f][1,2,4]triazin-4-amine]			56	86
N#CCC(=O)NC1CCN(c2nc(Nc3cc(C4CC4)n[nH]3)c3cccn3n2)CC1 [Example 39, 2-cyano-N-(1-(4-((3-cyclopropyl-1H-pyrazol-5-yl)amino)pyrrolo[2,1-f][1,2,4]triazin-2-yl)-4-piperidinyl)acetamide]			1	0.7
O=C(CCc1ccccc1)NC1CCN(c2nc(Nc3cc(C4CC4)n[nH]3)c3cccn3n2)CC1 [Example 43, N-(1-(4-((3-cyclopropyl-1H-pyrazol-5-yl)amino)pyrrolo[2,1-f][1,2,4]triazin-2-yl)-4-piperidinyl)-3-phenylpropanamide]			0.4	0.5
O=C(Cc1cccs1)NC1CCN(c2nc(Nc3cc(C4CC4)n[nH]3)c3cccn3n2)CC1 [Example 49, N-(1-(4-((3-cyclopropyl-1H-pyrazol-5-yl)amino)pyrrolo[2,1-f][1,2,4]triazin-2-yl)-4-piperidinyl)-2-(2-thienyl)acetamide]			0.9	0.6
Cc1cc(Nc2nc(N3CC[C@@H](O)C3)nn3cccc23)n[nH]1 [Example 70, (3R)-1-(4-((5-methyl-1H-pyrazol-3-yl)amino)pyrrolo[2,1-f][1,2,4]triazin-2-yl)-3-pyrrolidinol]			23	38
Cc1cc(Nc2nc(N3CCNCC3)nn3cccc23)n[nH]1 [Example 74, N-(5-methyl-1H-pyrazol-3-yl)-2-(1-piperazinyl)pyrrolo[2,1-f][1,2,4]triazin-4-amine]			120	195
Cc1cc(Nc2nc(N3CCCC3)nn3cccc23)n[nH]1 [Example 75, N-(5-methyl-1H-pyrazol-3-yl)-2-(1-pyrrolidinyl)pyrrolo[2,1-f][1,2,4]triazin-4-amine]			5	9
N[C@H]1CCN(c2nc(Nc3cc(C4CC4)n[nH]3)c3cccn3n2)C1 [Example 91]			5	10
Cc1cc(Nc2nc(N3CCOCC3)nn3cccc23)[nH]n1 [Example 95, N-(3-methyl-1H-pyrazol-5-yl)-2-(4-morpholinyl)pyrrolo [2,1-f][1,2,4]triazin-4-amine]			23	49
NCC1CCN(c2nc(Nc3cc(-c4ccccc4)n[nH]3)c3cccn3n2)CC1 [Example 97, 2-(4-(aminomethyl)-1-piperidinyl)-N-(3-phenyl-1H-pyrazol-5-yl)pyrrolo[2,1-f][1,2,4]triazin-4-amine]			24	48
CCc1cc(Nc2nc(N3CCC(c4ccccc4F)C3)nn3cccc23)[nH]n1 (stereo not drawn) [Example 171, N-(3-Ethyl-1H-pyrazol-5-yl)-2-(3-(2-fluorophenyl)pyrrolidin-1-yl)pyrrolo[1,2-f][1,2,4]triazin-4-amine]	11	154		
c1ccc(-c2cc(Nc3nc(N4CCC(c5cccnc5)C4)nn4cccc34)[nH]n2)cc1 (stereo not drawn) [Example 174, N-(3-phenyl-1H-pyrazol-5-yl)-2-(3-(pyridin-3-yl)pyrrolidin-1-yl)pyrrolo[1,2f][1,2,4]triazin-4-amine]	91	670		
c1cncc(C2CCN(c3nc(Nc4cc(C5CC5)n[nH]4)c4cccn4n3)C2)c1 (stereo not drawn) [Example 181, N-(3-cyclopropyl-1H-pyrazol-5-yl)-2-(3-(pyridin-3-yl)pyrrolidin-1-yl)pyrrolo[1,2-f][1,2,4]triazin-4-amine]	6	84		
CC1C[C@@H]1c1cc(Nc2nc(N3CCC(c4cccnc4)C3)nn3cccc23)[nH]n1 (stereo partly drawn) [Example 182, N-(3-((1S,2S)-2-methylcyclopropyl)-1H-pyrazol-5-yl)-2-(3-(pyridin-3-yl)pyrrolidin-1-yl)pyrrolo[1,2-f][1,2,4]triazin-4-amine]	13	131		
